Source: PubChem BioAssay AID2060898 (Molecular Pharmacology Branch, DTP, NCI, 2025)

Test system: 616215-338-R-J1-PDC complex spheroid viability
Assay: Anticancer human tumor 616215-338-R-J1-PDC patient-derived colon adenocarcinoma cell line growth inhibition [RAS]
Details: for IC50: curve of first compound; for viability, T/C: stronger effect = lower value
How it was run: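 Agents were tested in combination matrices in half-log decrements from a top concentration at or near clinical Cmax (10 microM if undetermined). Targets were multi-cell spheroids of tumour lines plus HUVEC and MSC stromal cells.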

[1] = second compound 0.0316 µM, first compound 0.00316 µM
[2] = second compound 0.0316 µM, first compound 0.01 µM
[3] = second compound 0.0316 µM, first compound 0.0316 µM
[4] = second compound 0.0316 µM, first compound 0.1 µM
[5] = second compound 0.0316 µM, first compound 0.316 µM
[6] = second compound 0.0316 µM, first compound 1 µM
[7] = second compound 0.1 µM, first compound 0.00316 µM
[8] = second compound 0.1 µM, first compound 0.01 µM
[9] = second compound 0.1 µM, first compound 0.0316 µM
[10] = second compound 0.1 µM, first compound 0.1 µM
[11] = second compound 0.1 µM, first compound 0.316 µM
[12] = second compound 0.1 µM, first compound 1 µM
[13] = second compound 0.316 µM, first compound 0.00316 µM
[14] = second compound 0.316 µM, first compound 0.01 µM
[15] = second compound 0.316 µM, first compound 0.0316 µM
[16] = second compound 0.316 µM, first compound 0.1 µM
[17] = second compound 0.316 µM, first compound 0.316 µM
[18] = second compound 0.316 µM, first compound 1 µM
[19] = second compound 1 µM, first compound 0.00316 µM
[20] = second compound 1 µM, first compound 0.01 µM
[21] = second compound 1 µM, first compound 0.0316 µM
[22] = second compound 1 µM, first compound 0.1 µM
[23] = second compound 1 µM, first compound 0.316 µM
[24] = second compound 1 µM, first compound 1 µM
[25] = second compound 3.16 µM, first compound 0.00316 µM
[26] = second compound 3.16 µM, first compound 0.01 µM
[27] = second compound 3.16 µM, first compound 0.0316 µM
[28] = second compound 3.16 µM, first compound 0.1 µM
[29] = second compound 3.16 µM, first compound 0.316 µM
[30] = second compound 3.16 µM, first compound 1 µM
[31] = second compound 10 µM, first compound 0.00316 µM
[32] = second compound 10 µM, first compound 0.01 µM
[33] = second compound 10 µM, first compound 0.0316 µM
[34] = second compound 10 µM, first compound 0.1 µM
[35] = second compound 10 µM, first compound 0.316 µM
[36] = second compound 10 µM, first compound 1 µM
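Also: spheroids exposed to agents for seven days before viability readout.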
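For viability, T/C in this document: 100% = DMSO vehicle control viability.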

Compound `C=CC(=O)N1CCN(c2nc(OCC3CCCN3C)nc3c(F)c(-c4nc(N)cc(C)c4C(F)(F)F)c(Cl)cc23)C(C)C1` (stereo not drawn) + C#Cc1c(F)ccc2cc(O)cc(-c3ncc4c(N5CC6CCC(C5)N6)nc(OCC56CCCN5CC(F)C6)nc4c3F)c12 has an IC50 (second compound 0.0316 µM) of over 1000 nM, an IC50 (second compound 0.1 µM) of over 1000 nM and an IC50 (second compound 0.316 µM) of over 1000 nM. It also gave an IC50 (second compound 1 µM) of over 1000 nM, an IC50 (second compound 3.16 µM) of over 1000 nM and an IC50 (second compound 10 µM) of over 1000 nM. For the same compound, the viability, T/C [1] was 107%, the viability, T/C [2] was 112% and the viability, T/C [3] was 101%. The viability, T/C [4] was 106%, the viability, T/C [5] was 100% and the viability, T/C [6] was 104%. For the same compound, the viability, T/C [7] was 121%, the viability, T/C [8] was 105% and the viability, T/C [9] was 109%. For the same compound, the viability, T/C [10] was 107%, the viability, T/C [11] was 108% and the viability, T/C [12] was 102%. The viability, T/C [13] was 112%, the viability, T/C [14] was 104% and the viability, T/C [15] was 109%. The viability, T/C [16] was 112%, the viability, T/C [17] was 107% and the viability, T/C [18] was 112%. It also gave a viability, T/C [19] of 122%, a viability, T/C [20] of 123% and a viability, T/C [21] of 114%. The viability, T/C [22] was 120%, the viability, T/C [23] was 124% and the viability, T/C [24] was 109%. It also gave a viability, T/C [25] of 125%, a viability, T/C [26] of 107% and a viability, T/C [27] of 109%. It also gave a viability, T/C [28] of 112%, a viability, T/C [29] of 109% and a viability, T/C [30] of 105%. It also gave a viability, T/C [31] of 102%, a viability, T/C [32] of 93.8% and a viability, T/C [33] of 92.8%. It also gave a viability, T/C [34] of 99.3%, a viability, T/C [35] of 110% and a viability, T/C [36] of 93%.
`CC(=O)OC12COC1CC(O)C1(C)C(=O)C(O)C3=C(C)C(OC(=O)C(O)C(NC(=O)OC(C)(C)C)c4ccccc4)CC(O)(C(OC(=O)c4ccccc4)C21)C3(C)C` (stereo not drawn) + C#Cc1c(F)ccc2cc(O)cc(-c3ncc4c(N5CC6CCC(C5)N6)nc(OCC56CCCN5CC(F)C6)nc4c3F)c12 was tested, and the IC50 (second compound 0.0316 µM) was under 31.6 nM, the IC50 (second compound 0.1 µM) was under 31.6 nM and the IC50 (second compound 0.316 µM) was under 31.6 nM. It also gave an IC50 (second compound 1 µM) of under 31.6 nM, an IC50 (second compound 3.16 µM) of under 31.6 nM and an IC50 (second compound 10 µM) of under 31.6 nM. For the same compound, the viability, T/C [3] was 26.7%, the viability, T/C [4] was 23.1% and the viability, T/C [5] was 18.6%. It also gave a viability, T/C [6] of 18.8%, a viability, T/C (second compound 0.0316 µM, first compound 3.16 µM) of 22.8% and a viability, T/C (second compound 0.0316 µM, first compound 10 µM) of 23%. For the same compound, the viability, T/C [9] was 26.2%, the viability, T/C [10] was 23.6% and the viability, T/C [11] was 17.9%. For the same compound, the viability, T/C [12] was 18%, the viability, T/C (second compound 0.1 µM, first compound 3.16 µM) was 25.9% and the viability, T/C (second compound 0.1 µM, first compound 10 µM) was 23.3%. For the same compound, the viability, T/C [15] was 29.3%, the viability, T/C [16] was 21.3% and the viability, T/C [17] was 18%. For the same compound, the viability, T/C [18] was 18.1%, the viability, T/C (second compound 0.316 µM, first compound 3.16 µM) was 22.4% and the viability, T/C (second compound 0.316 µM, first compound 10 µM) was 22.1%. For the same compound, the viability, T/C [21] was 23%, the viability, T/C [22] was 19.6% and the viability, T/C [23] was 20.9%. For the same compound, the viability, T/C [24] was 17.1%, the viability, T/C (second compound 1 µM, first compound 3.16 µM) was 19.1% and the viability, T/C (second compound 1 µM, first compound 10 µM) was 19.4%. The viability, T/C [27] was 20.7%, the viability, T/C [28] was 17.4% and the viability, T/C [29] was 15.9%. For the same compound, the viability, T/C [30] was 15.1%, the viability, T/C (second compound 3.16 µM, first compound 3.16 µM) was 17.9% and the viability, T/C (second compound 3.16 µM, first compound 10 µM) was 23.4%. For the same compound, the viability, T/C [33] was 14.5%, the viability, T/C [34] was 14.9% and the viability, T/C [35] was 16.1%. The viability, T/C [36] was 13%, the viability, T/C (second compound 10 µM, first compound 3.16 µM) was 17.5% and the viability, T/C (second compound 10 µM, first compound 10 µM) was 12.3%.
With `CCc1c2c(nc3ccc(O)cc13)-c1cc3c(c(=O)n1C2)COC(=O)[C@]3(O)CC` + C#Cc1c(F)ccc2cc(O)cc(-c3ncc4c(N5CC6CCC(C5)N6)nc(OCC56CCCN5CC(F)C6)nc4c3F)c12 the IC50 (second compound 0.0316 µM) was 10.2 nM, the IC50 (second compound 0.1 µM) was 10.7 nM and the IC50 (second compound 0.316 µM) was 16.8 nM. The IC50 (second compound 1 µM) was 7.72 nM, the IC50 (second compound 3.16 µM) was 4.71 nM and the IC50 (second compound 10 µM) was under 0.949 nM. For the same compound, the viability, T/C (second compound 0.0316 µM, first compound 0.000949 µM) was 108%, the viability, T/C (second compound 0.0316 µM, first compound 0.003 µM) was 108% and the viability, T/C (second compound 0.0316 µM, first compound 0.00949 µM) was 50.2%. It also gave a viability, T/C (second compound 0.0316 µM, first compound 0.03 µM) of 35%, a viability, T/C (second compound 0.0316 µM, first compound 0.0949 µM) of 21.1% and a viability, T/C (second compound 0.0316 µM, first compound 0.3 µM) of 16.5%. It also gave a viability, T/C (second compound 0.1 µM, first compound 0.000949 µM) of 116%, a viability, T/C (second compound 0.1 µM, first compound 0.003 µM) of 103% and a viability, T/C (second compound 0.1 µM, first compound 0.00949 µM) of 50.8%. The viability, T/C (second compound 0.1 µM, first compound 0.03 µM) was 27.9%, the viability, T/C (second compound 0.1 µM, first compound 0.0949 µM) was 21.6% and the viability, T/C (second compound 0.1 µM, first compound 0.3 µM) was 13.6%. For the same compound, the viability, T/C (second compound 0.316 µM, first compound 0.000949 µM) was 112%, the viability, T/C (second compound 0.316 µM, first compound 0.003 µM) was 100% and the viability, T/C (second compound 0.316 µM, first compound 0.00949 µM) was 63%. The viability, T/C (second compound 0.316 µM, first compound 0.03 µM) was 36%, the viability, T/C (second compound 0.316 µM, first compound 0.0949 µM) was 20.6% and the viability, T/C (second compound 0.316 µM, first compound 0.3 µM) was 14%. It also gave a viability, T/C (second compound 1 µM, first compound 0.000949 µM) of 120%, a viability, T/C (second compound 1 µM, first compound 0.003 µM) of 89.6% and a viability, T/C (second compound 1 µM, first compound 0.00949 µM) of 38.7%. The viability, T/C (second compound 1 µM, first compound 0.03 µM) was 30.5%, the viability, T/C (second compound 1 µM, first compound 0.0949 µM) was 20.2% and the viability, T/C (second compound 1 µM, first compound 0.3 µM) was 15.8%. For the same compound, the viability, T/C (second compound 3.16 µM, first compound 0.000949 µM) was 89.3%, the viability, T/C (second compound 3.16 µM, first compound 0.003 µM) was 65.8% and the viability, T/C (second compound 3.16 µM, first compound 0.00949 µM) was 25.1%. The viability, T/C (second compound 3.16 µM, first compound 0.03 µM) was 20%, the viability, T/C (second compound 3.16 µM, first compound 0.0949 µM) was 15.1% and the viability, T/C (second compound 3.16 µM, first compound 0.3 µM) was 13.2%. For the same compound, the viability, T/C (second compound 10 µM, first compound 0.000949 µM) was 47.1%, the viability, T/C (second compound 10 µM, first compound 0.003 µM) was 45% and the viability, T/C (second compound 10 µM, first compound 0.00949 µM) was 17.5%. The viability, T/C (second compound 10 µM, first compound 0.03 µM) was 17.6%, the viability, T/C (second compound 10 µM, first compound 0.0949 µM) was 16.6% and the viability, T/C (second compound 10 µM, first compound 0.3 µM) was 10.7%.
`Nc1ccn(C2OC(CO)C(O)C2(F)F)c(=O)n1` (stereo not drawn) + C#Cc1c(F)ccc2cc(O)cc(-c3ncc4c(N5CC6CCC(C5)N6)nc(OCC56CCCN5CC(F)C6)nc4c3F)c12 was tested, and the IC50 (second compound 0.0316 µM) was 9.25 nM, the IC50 (second compound 0.1 µM) was 9.98 nM and the IC50 (second compound 0.316 µM) was 9.74 nM. For the same compound, the IC50 (second compound 1 µM) was 5.94 nM, the IC50 (second compound 3.16 µM) was 3.91 nM and the IC50 (second compound 10 µM) was 3.26 nM. For the same compound, the viability, T/C [1] was 113%, the viability, T/C [2] was 44.9% and the viability, T/C [3] was 24.6%. The viability, T/C [4] was 13%, the viability, T/C [5] was 13.2% and the viability, T/C [6] was 16.3%. It also gave a viability, T/C [7] of 117%, a viability, T/C [8] of 48.8% and a viability, T/C [9] of 28.1%. For the same compound, the viability, T/C [10] was 14.9%, the viability, T/C [11] was 14.4% and the viability, T/C [12] was 14.6%. For the same compound, the viability, T/C [13] was 90%, the viability, T/C [14] was 48.5% and the viability, T/C [15] was 28.4%. The viability, T/C [16] was 15.6%, the viability, T/C [17] was 13.9% and the viability, T/C [18] was 14.8%. For the same compound, the viability, T/C [19] was 77%, the viability, T/C [20] was 24.4% and the viability, T/C [21] was 26.7%. For the same compound, the viability, T/C [22] was 12.7%, the viability, T/C [23] was 10.8% and the viability, T/C [24] was 12.1%. The viability, T/C [25] was 55.9%, the viability, T/C [26] was 24.1% and the viability, T/C [27] was 19%. It also gave a viability, T/C [28] of 10.6%, a viability, T/C [29] of 11.6% and a viability, T/C [30] of 12.1%. It also gave a viability, T/C [31] of 50.9%, a viability, T/C [32] of 21.4% and a viability, T/C [33] of 16.3%. The viability, T/C [34] was 12.4%, the viability, T/C [35] was 10% and the viability, T/C [36] was 10.9%.
